According to the kinase profiling compilation of Christmann-Franck et al. (2016):

Key:
Test in all cases: radiometric filter-binding kinase assay
MKNK1 (human) = MKNK1 (human) (UniProt Q9BUB5)
PAK4 (human) = PAK4 (human) (UniProt O96013)
NUAK1 (human) = NUAK1 (human) (UniProt O60285)
CaMK1 (human) = CaMK1 (human) (UniProt Q14012)
PRKAA1 or PRKAA2 (rat) = conditions: accession and sequence are those of the human protein
MARK3 (human) = MARK3 (human) (UniProt P27448)
SRC (human) = SRC (human) (UniProt P12931)
NTRK1 (human) = NTRK1 (human) (UniProt P04629)
IGF1R (human) = IGF1R (human) (UniProt P08069)
Sequence of IGF1R (human) (P08069 whole entry, looked up): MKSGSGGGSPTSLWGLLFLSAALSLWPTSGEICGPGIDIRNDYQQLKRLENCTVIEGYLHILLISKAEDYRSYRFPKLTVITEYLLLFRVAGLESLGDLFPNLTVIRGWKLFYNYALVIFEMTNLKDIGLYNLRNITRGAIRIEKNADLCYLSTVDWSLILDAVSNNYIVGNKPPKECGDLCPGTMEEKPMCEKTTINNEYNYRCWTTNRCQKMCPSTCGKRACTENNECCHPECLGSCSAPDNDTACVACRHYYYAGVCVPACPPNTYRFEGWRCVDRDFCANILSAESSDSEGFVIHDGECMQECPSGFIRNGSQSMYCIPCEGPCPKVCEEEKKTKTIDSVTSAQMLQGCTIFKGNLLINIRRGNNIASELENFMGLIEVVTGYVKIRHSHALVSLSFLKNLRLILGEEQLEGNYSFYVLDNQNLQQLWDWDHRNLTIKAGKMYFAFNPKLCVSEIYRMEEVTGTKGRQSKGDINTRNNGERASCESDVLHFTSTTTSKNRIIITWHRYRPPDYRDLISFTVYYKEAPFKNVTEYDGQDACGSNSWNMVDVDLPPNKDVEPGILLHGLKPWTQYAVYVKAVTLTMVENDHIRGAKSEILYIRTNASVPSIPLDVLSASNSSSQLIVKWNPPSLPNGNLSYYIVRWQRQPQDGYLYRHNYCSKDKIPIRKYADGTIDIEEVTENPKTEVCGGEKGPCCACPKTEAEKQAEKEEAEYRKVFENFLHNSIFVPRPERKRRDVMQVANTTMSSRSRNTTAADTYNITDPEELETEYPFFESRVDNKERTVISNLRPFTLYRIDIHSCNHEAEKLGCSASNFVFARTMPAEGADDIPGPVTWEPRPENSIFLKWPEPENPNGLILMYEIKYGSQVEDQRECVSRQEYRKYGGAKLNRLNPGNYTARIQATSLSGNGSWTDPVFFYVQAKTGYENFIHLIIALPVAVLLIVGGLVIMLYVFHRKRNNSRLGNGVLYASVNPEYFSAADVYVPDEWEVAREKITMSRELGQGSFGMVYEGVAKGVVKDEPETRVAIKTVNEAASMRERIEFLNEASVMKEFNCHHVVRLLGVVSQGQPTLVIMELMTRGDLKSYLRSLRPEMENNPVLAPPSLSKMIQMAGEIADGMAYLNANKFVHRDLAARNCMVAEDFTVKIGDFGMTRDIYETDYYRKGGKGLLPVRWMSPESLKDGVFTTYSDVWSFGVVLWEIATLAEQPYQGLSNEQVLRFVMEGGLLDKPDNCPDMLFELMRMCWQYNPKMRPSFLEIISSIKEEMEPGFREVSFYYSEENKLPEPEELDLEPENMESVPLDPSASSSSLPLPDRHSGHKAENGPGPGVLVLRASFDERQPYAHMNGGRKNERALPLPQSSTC

RIPK2 (human) = RIPK2 (human) (UniProt O43353)
MAPK13 (human) = MAPK13 (human) (UniProt O15264)
CHEK1 (human) = CHEK1 (human) (UniProt O14757)
PRKACA (human) = PRKACA (human) (UniProt P17612)
PIM2 (human) = PIM2 (human) (UniProt Q9P1W9)
MINK1 (human) = MINK1 (human) (UniProt Q8N4C8)
LCK (mouse) = conditions: accession and sequence are those of the human protein
MAP3K11 (human) = MAP3K11 (human) (UniProt Q16584)
INSRR (human) = INSRR (human) (UniProt P14616)
DYRK1A (human) = DYRK1A (human) (UniProt Q13627)
SYK (human) = SYK (human) (UniProt P43405)
JAK2 JH1 JH2 (human) = JAK2 JH1 JH2 (human) (UniProt O60674)
MAPK10 (human) = MAPK10 (human) (UniProt P53779)
Sequence of MAPK10 (human) (P53779 whole entry, looked up): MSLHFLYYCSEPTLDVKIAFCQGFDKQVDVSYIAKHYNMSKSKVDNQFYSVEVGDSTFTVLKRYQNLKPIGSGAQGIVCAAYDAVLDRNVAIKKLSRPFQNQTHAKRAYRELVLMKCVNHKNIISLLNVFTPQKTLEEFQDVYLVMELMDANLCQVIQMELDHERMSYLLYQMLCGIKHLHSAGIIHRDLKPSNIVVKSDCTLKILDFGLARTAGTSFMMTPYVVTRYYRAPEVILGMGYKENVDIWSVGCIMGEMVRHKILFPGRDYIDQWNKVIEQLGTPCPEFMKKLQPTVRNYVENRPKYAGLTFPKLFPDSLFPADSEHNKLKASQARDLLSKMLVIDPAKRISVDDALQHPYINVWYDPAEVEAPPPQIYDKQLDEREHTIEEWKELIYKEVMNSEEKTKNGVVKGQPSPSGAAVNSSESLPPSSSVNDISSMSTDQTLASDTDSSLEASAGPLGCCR

AURKB (human) = AURKB (human) (UniProt Q96GD4)
PRKCZ (human) = PRKCZ (human) (UniProt Q05513)
CDK2 CCNA2 (human) = CDK2 CCNA2 (human) (UniProt P20248+P24941)
MAP3K9 (human) = MAP3K9 (human) (UniProt P80192)
MST4 (human) = MST4 (human) (UniProt Q9P289)
YES1 (human) = YES1 (human) (UniProt P07947)
EPHB3 (human) = EPHB3 (human) (UniProt P54753)
Sequence of EPHB3 (human) (P54753 whole entry, looked up): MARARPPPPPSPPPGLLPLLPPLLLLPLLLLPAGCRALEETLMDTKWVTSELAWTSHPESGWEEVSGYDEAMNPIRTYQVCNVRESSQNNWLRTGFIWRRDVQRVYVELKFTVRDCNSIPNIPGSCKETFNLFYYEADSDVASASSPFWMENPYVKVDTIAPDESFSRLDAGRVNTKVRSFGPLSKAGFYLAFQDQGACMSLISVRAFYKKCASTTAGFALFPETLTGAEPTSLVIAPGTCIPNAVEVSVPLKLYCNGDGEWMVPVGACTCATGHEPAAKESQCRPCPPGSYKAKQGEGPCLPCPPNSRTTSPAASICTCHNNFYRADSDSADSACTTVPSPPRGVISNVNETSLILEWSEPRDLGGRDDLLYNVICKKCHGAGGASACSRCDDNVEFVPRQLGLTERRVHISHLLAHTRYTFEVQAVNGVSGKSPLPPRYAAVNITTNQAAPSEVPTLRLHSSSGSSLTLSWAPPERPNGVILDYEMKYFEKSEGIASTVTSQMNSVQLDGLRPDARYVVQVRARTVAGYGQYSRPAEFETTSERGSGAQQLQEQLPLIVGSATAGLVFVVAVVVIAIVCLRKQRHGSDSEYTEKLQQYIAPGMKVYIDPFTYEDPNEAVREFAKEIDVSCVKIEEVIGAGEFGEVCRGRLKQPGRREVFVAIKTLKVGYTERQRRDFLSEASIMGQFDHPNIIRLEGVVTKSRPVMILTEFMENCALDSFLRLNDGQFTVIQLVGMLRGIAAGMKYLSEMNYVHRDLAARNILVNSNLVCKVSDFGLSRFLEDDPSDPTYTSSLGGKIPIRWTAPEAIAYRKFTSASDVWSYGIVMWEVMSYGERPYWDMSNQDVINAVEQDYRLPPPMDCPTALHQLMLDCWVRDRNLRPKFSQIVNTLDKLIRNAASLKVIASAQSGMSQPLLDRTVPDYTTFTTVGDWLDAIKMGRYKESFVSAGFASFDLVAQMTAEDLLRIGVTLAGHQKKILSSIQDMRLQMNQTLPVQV

MAP2K1 (human) = MAP2K1 (human) (UniProt Q02750)
[1] = system: AKT2 (human), P31751 [S474D]
MARK4 (human) = MARK4 (human) (UniProt Q96L34)
Sequence of MARK4 (human) (Q96L34 whole entry, looked up): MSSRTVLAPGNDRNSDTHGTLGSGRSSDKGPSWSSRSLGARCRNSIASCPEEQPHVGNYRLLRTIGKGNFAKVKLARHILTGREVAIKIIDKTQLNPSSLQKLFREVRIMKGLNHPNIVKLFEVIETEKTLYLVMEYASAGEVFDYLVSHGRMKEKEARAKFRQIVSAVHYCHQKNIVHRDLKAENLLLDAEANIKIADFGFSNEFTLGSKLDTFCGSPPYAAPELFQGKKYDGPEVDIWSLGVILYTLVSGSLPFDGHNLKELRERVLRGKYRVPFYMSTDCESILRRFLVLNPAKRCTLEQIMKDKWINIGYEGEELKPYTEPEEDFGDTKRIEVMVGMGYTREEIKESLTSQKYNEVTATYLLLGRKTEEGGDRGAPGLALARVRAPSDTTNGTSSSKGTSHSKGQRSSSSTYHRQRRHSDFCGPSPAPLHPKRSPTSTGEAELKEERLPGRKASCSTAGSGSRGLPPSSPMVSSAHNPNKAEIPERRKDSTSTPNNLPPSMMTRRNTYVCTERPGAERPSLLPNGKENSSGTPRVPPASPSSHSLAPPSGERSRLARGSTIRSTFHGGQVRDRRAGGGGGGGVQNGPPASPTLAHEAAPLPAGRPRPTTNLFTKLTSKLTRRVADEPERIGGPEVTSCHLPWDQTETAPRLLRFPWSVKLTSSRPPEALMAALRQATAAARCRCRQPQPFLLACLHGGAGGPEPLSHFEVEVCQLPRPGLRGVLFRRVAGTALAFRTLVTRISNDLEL

CAMKK2 (human) = CAMKK2 (human) (UniProt Q96RR4)
CSNK2A1 (human) = CSNK2A1 (human) (UniProt P68400)
Sequence of CSNK2A1 (human) (P68400 whole entry, looked up): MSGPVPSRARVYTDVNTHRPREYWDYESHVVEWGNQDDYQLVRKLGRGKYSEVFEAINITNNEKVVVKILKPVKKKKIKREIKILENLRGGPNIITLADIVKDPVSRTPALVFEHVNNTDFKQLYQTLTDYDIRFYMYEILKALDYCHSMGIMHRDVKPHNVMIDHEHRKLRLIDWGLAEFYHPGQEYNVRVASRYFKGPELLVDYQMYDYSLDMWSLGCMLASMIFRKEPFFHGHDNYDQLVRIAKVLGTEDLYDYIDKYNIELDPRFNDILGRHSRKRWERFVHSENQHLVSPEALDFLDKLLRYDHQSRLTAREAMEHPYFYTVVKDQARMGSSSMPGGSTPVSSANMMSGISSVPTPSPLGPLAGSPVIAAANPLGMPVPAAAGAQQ

PHKG1 (human) = PHKG1 (human) (UniProt Q16816)
INSR (human) = INSR (human) (UniProt P06213)

Sequence of PAK4 (human) (O96013 whole entry, looked up): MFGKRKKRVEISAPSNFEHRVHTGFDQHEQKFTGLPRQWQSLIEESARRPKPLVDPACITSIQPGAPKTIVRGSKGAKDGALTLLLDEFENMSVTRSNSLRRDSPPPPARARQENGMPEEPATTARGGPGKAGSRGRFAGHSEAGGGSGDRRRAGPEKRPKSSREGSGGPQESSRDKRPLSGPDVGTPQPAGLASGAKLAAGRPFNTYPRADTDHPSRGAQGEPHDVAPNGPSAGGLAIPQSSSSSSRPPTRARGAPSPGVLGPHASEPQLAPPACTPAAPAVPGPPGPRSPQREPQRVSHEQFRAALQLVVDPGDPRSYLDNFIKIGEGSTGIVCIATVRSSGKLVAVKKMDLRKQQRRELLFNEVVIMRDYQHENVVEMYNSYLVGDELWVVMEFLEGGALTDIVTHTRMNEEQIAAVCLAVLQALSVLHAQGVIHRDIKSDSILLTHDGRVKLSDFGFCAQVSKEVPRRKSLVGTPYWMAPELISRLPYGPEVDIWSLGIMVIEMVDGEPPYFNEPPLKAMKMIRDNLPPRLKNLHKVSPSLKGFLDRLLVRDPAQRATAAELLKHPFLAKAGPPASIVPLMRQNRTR
Sequence of MKNK1 (human) (Q9BUB5 whole entry, looked up): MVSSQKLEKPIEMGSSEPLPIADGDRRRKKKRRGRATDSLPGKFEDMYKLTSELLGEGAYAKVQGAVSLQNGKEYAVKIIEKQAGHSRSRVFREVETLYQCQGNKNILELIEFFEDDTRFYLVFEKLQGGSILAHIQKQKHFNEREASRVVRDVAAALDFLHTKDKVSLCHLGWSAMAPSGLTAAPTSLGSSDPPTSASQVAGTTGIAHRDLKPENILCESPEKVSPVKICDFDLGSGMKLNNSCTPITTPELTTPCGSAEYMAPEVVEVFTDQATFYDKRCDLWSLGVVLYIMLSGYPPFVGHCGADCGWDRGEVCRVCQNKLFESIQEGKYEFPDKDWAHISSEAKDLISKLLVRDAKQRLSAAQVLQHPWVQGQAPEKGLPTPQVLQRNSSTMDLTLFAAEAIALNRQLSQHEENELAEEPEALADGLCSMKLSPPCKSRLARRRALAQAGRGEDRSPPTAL

- residual activity (MKNK1 (human); compound 1.0 µM): 89%
- residual activity (MKNK1 (human); compound 10.0 µM): 55%
- residual activity (PAK4 (human); compound 1.0 µM): 121%
- residual activity (PAK4 (human); compound 10.0 µM): 97%
- residual activity (NUAK1 (human); compound 1.0 µM): 128%
- residual activity (NUAK1 (human); compound 10.0 µM): 88%
- residual activity (CaMK1 (human); compound 1.0 µM): 93%
- residual activity (CaMK1 (human); compound 10.0 µM): 73%
- residual activity (PRKAA1 or PRKAA2 (rat); compound 1.0 µM): 81%
- residual activity (PRKAA1 or PRKAA2 (rat); compound 10.0 µM): 51%
- residual activity (MARK3 (human); compound 1.0 µM): 100%
- residual activity (MARK3 (human); compound 10.0 µM): 51%
- residual activity (SRC (human); compound 1.0 µM): 108%
- residual activity (SRC (human); compound 10.0 µM): 95%
- residual activity (NTRK1 (human); compound 1.0 µM): 104%
- residual activity (NTRK1 (human); compound 10.0 µM): 71%
- residual activity (IGF1R (human); compound 1.0 µM): 74%
- residual activity (IGF1R (human); compound 10.0 µM): 74%
- residual activity (RIPK2 (human); compound 1.0 µM): 83%
- residual activity (RIPK2 (human); compound 10.0 µM): 30%
- residual activity (MAPK13 (human); compound 1.0 µM): 113%
- residual activity (MAPK13 (human); compound 10.0 µM): 77%
- residual activity (CHEK1 (human); compound 1.0 µM): 118%
- residual activity (CHEK1 (human); compound 10.0 µM): 65%
- residual activity (PRKACA (human); compound 1.0 µM): 101%
- residual activity (PRKACA (human); compound 10.0 µM): 89%
- residual activity (PIM2 (human); compound 1.0 µM): 87%
- residual activity (PIM2 (human); compound 10.0 µM): 36%
- residual activity (MINK1 (human); compound 1.0 µM): 96%
- residual activity (MINK1 (human); compound 10.0 µM): 87%
- residual activity (LCK (mouse); compound 1.0 µM): 100%
- residual activity (LCK (mouse); compound 10.0 µM): 98%
- residual activity (MAP3K11 (human); compound 1.0 µM): 91%
- residual activity (MAP3K11 (human); compound 10.0 µM): 61%
- residual activity (INSRR (human); compound 1.0 µM): 67%
- residual activity (INSRR (human); compound 10.0 µM): 27%
- residual activity (DYRK1A (human); compound 1.0 µM): 27%
- residual activity (DYRK1A (human); compound 10.0 µM): 5%
- residual activity (SYK (human); compound 1.0 µM): 114%
- residual activity (SYK (human); compound 10.0 µM): 102%
- residual activity (JAK2 JH1 JH2 (human); compound 1.0 µM): 99%
- residual activity (JAK2 JH1 JH2 (human); compound 10.0 µM): 46%
- residual activity (MAPK10 (human); compound 1.0 µM): 85%
- residual activity (MAPK10 (human); compound 10.0 µM): 96%
- residual activity (AURKB (human); compound 1.0 µM): 81%
- residual activity (AURKB (human); compound 10.0 µM): 40%
- residual activity (PRKCZ (human); compound 1.0 µM): 126%
- residual activity (PRKCZ (human); compound 10.0 µM): 60%
- residual activity (CDK2 CCNA2 (human); compound 1.0 µM): 79%
- residual activity (CDK2 CCNA2 (human); compound 10.0 µM): 47%
- residual activity (MAP3K9 (human); compound 1.0 µM): 126%
- residual activity (MAP3K9 (human); compound 10.0 µM): 91%
- residual activity (MST4 (human); compound 1.0 µM): 118%
- residual activity (MST4 (human); compound 10.0 µM): 71%
- residual activity (YES1 (human); compound 1.0 µM): 100%
- residual activity (YES1 (human); compound 10.0 µM): 87%
- residual activity (EPHB3 (human); compound 1.0 µM): 122%
- residual activity (EPHB3 (human); compound 10.0 µM): 104%
- residual activity (MAP2K1 (human); compound 1.0 µM): 87%
- residual activity (MAP2K1 (human); compound 10.0 µM): 31%
- residual activity ([1]; compound 1.0 µM): 106%
- residual activity ([1]; compound 10.0 µM): 98%
- residual activity (MARK4 (human); compound 1.0 µM): 106%
- residual activity (MARK4 (human); compound 10.0 µM): 97%
- residual activity (CAMKK2 (human); compound 1.0 µM): 105%
- residual activity (CAMKK2 (human); compound 10.0 µM): 44%
- residual activity (CSNK2A1 (human); compound 1.0 µM): 20%
- residual activity (CSNK2A1 (human); compound 10.0 µM): 4%
- residual activity (PHKG1 (human); compound 1.0 µM): 102%
- residual activity (PHKG1 (human); compound 10.0 µM): 82%
- residual activity (INSR (human); compound 1.0 µM): 100%
- residual activity (INSR (human); compound 10.0 µM): 91%
Structure (SMILES): FC(F)(F)c1ccc(-c2ccc(Oc3cncc4sc(-c5nn[nH]n5)cc34)cc2)cc1
